# Test results reported in patent US8206943B1, “Assay for PCSK9 inhibitors” (Schering Corporation, priority 2008, dated 2012).
# Legend:
# [1] = molecular target: T1, PCSK9 (Homo sapiens, UniProt Q8NBP7); test: HPLC / chromatographic analysis of PCSK9 autoproteolysis (cis-cleavage) in the presence of inhibitors; format: biochemical; design: Pro-Cat-Domain Polypeptide; initiator Met (N); made in house; host or cells: E. coli BL-21(DE3)
# Experimental: Unprocessed PCSK9 (18 μM for NanoStream experiment, 8 μM for BioRad Experion experiment) was incubated at 25° C. in 25 mM Hepes pH 7.5, 150 mM NaCl, 10% glycerol and 1 mM EDTA (4% DMSO may be added to uninhibited control assays when run in conjunction with assays that include inhibitors dissolved in DMSO). At the designated time points (t=0 minutes, 60 minutes and 240 minutes), aliquots from the 18 μM incubation were quenched by adding guanidine hydrochloride to a concentration of 6M, then the quenched reaction was applied (1 μl) to NanoStream Brio #4207007 (300 Å, C4) chromatography cassette. Following gradient elution, from the cassette, using 0.1% TFA in water (solvent A) and 0.085% TFA in acetonitrile (solvent B), the peaks were quantitated by absorbance at 214 nm.
# Furthermore, a chromatographic analysis of PCSK9 autoproteolysis was performed in the presence of various inhibitors. This assay was used to determine the effect of the inhibitors Tris (2-carboxyethyl) phosphine (TCEP; a reducing agent) and tosyl-L-lysine chloromethyl ketone (TLCK) on the PCSK9 autoproteolysis reaction. In these assay, the ProCat peak is uncleaved PCSK9 whereas the Pro- and Cat-peaks indicate generation of the Pro- and Cat-domains, which indicates autoproteolytic cleavage by PCSK9. FIG. 5(a) sets forth the data in the assay wherein the Tris (2-carboxyethyl) phosphine inhibitor was assayed. […] In the control-A experiment, Tris (2-carboxyethyl) phosphine was added at t=zero minutes of a 6 hour incubation. Tris (2-carboxyethyl) phosphine is a disulfide reducing agent that is not oxidized by air.
# In the control-B experiment set forth in FIG. 5(a), Tris (2-carboxyethyl) phosphine was added at the end of a 6 hour incubation. The appearance of the Pro- and Cat-domains in the control B assay indicate the occurrence of autoproteolysis.
# FIG. 5(b) sets forth data wherein inhibition mediated by TCEP (Tris (2-carboxyethyl) phosphine) and TLCK (tosyl-L-lysine chloromethyl ketone) are compared, side-by-side, in an autoproteolysis assay. […] The inhibitors are added at time zero. TCEP was added at 5 mM to quench the reaction; this sample serves as the 100% inhibited control—Control A in FIG. 5. TLCK was added at a concentration of 77 μM.
# An HPLC analysis was performed on unprocessed PCSK9. A sample containing 12 uM unprocessed PCSK9 in 25 mM Hepes buffer pH 7.5, 150 mM NaCl, 1 mM EDTA, 10% glycerol and 4.0% DMSO was incubated at 25° C. […] One microliter of the reaction mixture was analyzed directly by reversed phase-HPLC using Express-LC100, a micro fluidic chromatographic system from Eksigent. […] The flow rate was 12 uI per minute and the sample components were detected at 214 nm. The amount of ProCat polypeptide was calculated as % of sum of peak areas corresponding to Pro-, Cat- and ProCat domains. […]
# Target sequence in this assay (Q8NBP7 with tags, fused parts or gaps): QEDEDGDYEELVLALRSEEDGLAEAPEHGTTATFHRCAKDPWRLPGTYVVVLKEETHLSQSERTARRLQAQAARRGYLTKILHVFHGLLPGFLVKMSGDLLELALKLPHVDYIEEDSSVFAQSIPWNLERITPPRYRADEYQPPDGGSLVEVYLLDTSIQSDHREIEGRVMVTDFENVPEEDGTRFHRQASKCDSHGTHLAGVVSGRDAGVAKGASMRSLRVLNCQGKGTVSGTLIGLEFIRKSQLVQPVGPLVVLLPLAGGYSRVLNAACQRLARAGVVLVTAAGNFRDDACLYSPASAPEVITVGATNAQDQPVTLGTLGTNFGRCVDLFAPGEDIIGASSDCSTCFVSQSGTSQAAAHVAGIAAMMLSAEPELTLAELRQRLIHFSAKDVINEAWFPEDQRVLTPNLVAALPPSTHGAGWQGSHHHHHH
# [2] = molecular target: T1, PCSK9; test: Cis-cleavage assay for PCSK9 using immuno-detection (ELISA of remaining FLAG-tag on HisSorb plate); format: biochemical; design: A DNA fragment corresponding to residues 31-454 of human PCSK9 (Pro-Cat domains) was made synthetically; made in house; host or cells: E. coli (pDest14 vector; expressed as for the first construct, BL-21(DE3)); settings: 100 uM, 30° C. for 4 hours
# Experimental: This example describes an assay to monitor the cis-cleavage of human PCSK9 using immuno-detection methods. A construct of human PCSK9 was created to have an N-terminal FLAG-tag and a (His)6-tag on the C-terminus. After incubation, the reaction was quenched and the domains were disassociated with 4.0 M urea. The protein was transferred to and bound, via the His-tag, to a HisSorb plate (Qiagen; Valencia, Calif.; nickel-nitrilotriacetic acid (Ni-NTA) coated plate). The amount of cleavage was determined by measuring the remaining FLAG-tag using standard ELISA techniques. Using this method, the sensitivity of the assay was increased at least 1000-fold over gel-based techniques and the micro-titer format makes the assay compatible with high throughput screening methods.
# Cloning and expression. A DNA fragment corresponding to residues 31-454 of human PCSK9 (Pro-Cat domains) was made synthetically (GeneScript Corp., Piscataway, N.J.). Additional bases were included to add a Not1 restriction site and a Shine-Dalgarno initiation sequence to the 5′-end. A GS-(His)6 tag followed by a Asc1 restriction site was added to the 3′-end. A Gateway vector of PCSK9 was produced as FLAG-Pro-Cat(454)-GS-(His)6 by restriction digestion/ligation into the pDest14 expression vector. Expression and purification of the protein was done as previously described with aliquots frozen at −80° C. […]
# Target sequence in this assay (Q8NBP7 31-454): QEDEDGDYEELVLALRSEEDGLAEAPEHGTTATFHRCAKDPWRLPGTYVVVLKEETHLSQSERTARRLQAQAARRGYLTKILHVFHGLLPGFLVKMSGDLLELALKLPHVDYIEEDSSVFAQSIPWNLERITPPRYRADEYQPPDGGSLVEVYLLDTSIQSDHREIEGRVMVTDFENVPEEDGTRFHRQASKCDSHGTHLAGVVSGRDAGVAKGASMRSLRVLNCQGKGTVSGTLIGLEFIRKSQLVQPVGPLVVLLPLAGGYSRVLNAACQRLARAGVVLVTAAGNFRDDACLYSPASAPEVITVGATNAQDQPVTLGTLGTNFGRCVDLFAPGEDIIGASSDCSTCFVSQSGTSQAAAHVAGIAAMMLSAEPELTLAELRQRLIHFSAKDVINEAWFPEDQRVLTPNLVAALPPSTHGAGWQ
# [3] = 77 μM, added at time zero, FIG. 5(b)
Molecule,"inhibition of cis-cleavage activity ([1]; 5 mM, added at t=zero minutes of a 6 hour incubation (control-A), FIG. 5(a))","inhibition of cis-cleavage reaction ([1]; 77 uM, 6 hour incubation at 25° C., 12 uM unprocessed PCSK9)","Pro- and Cat-domains in comparison to Control-A (TCEP) [1, 3]","ProCat peak (uncleaved PCSK9) in comparison to Control-A (TCEP) [1, 3]",inhibition of cis-cleavage (negative control) [2] [%]
"O=C(O)CCP(CCC(=O)O)CCC(=O)O [TCEP, Tris (2-carboxyethyl) phosphine]",complete inhibition,–,–,–,–
tosyl-L-lysine chloromethyl ketone [TLCK],–,significant inhibition,slight increase,small decrease,100
